According to ChEMBL document CHEMBL2150953, “Synthesis and antiproliferative activity of helonioside A, 3',4',6'-tri-O-feruloylsucrose, lapathoside C and their analogs” (Eur J Med Chem, 2012):
pIC50: −log10 of the molar value.

Columns and labels:
Assay type in all cases: functional, cell-based
[1] = system: HeLa; test: Cytotoxicity against human HeLa cells after 48 hrs by MTS assay
[2] = system: HeLa; test: Cytotoxicity against human HeLa cells by MTS assay; conditions: TDE = time-dependent effect
[3] = system: HeLa; test: Cytotoxicity against human HeLa cells after 24 hrs by MTS assay

| Structure (SMILES) | pIC50 [1] | Activity [2] | pIC50 [3] |
| --- | --- | --- | --- |
| COc1cc(/C=C/C(=O)OC[C@H]2O[C@H](O[C@]3(CO)O[C@H](COC(=O)/C=C/c4ccc(OC(C)=O)cc4)[C@@H](O)[C@@H]3OC(=O)/C=C/c3ccc(OC(C)=O)cc3)[C@H](O)[C@@H](O)[C@@H]2O)ccc1OC(C)=O | < 4.00 |  |  |
| COc1cc(/C=C/C(=O)OC[C@H]2O[C@]3(COC(C)(C)O[C@H]4[C@H](O[C@@H]5COC(C)(C)O[C@H]5[C@@H]4O)O3)[C@@H](OC(=O)/C=C/c3ccc(OC(C)=O)c(OC)c3)[C@@H]2OC(=O)/C=C/c2ccc(OC(C)=O)c(OC)c2)ccc1OC(C)=O | 6.80 |  |  |
| COc1cc(/C=C/C(=O)OC[C@H]2O[C@H](O[C@]3(CO)O[C@H](COC(=O)/C=C/c4ccc(O)cc4)[C@@H](O)[C@@H]3OC(=O)/C=C/c3ccc(O)cc3)[C@H](O)[C@@H](OC(=O)/C=C/c3ccc(O)c(OC)c3)[C@@H]2O)ccc1O | 5.78 |  |  |
| O=C(/C=C/c1ccc(O)cc1)OC[C@H]1O[C@@](CO)(O[C@H]2O[C@H](COC(=O)/C=C/c3ccc(O)cc3)[C@@H](O)[C@H](OC(=O)/C=C/c3ccc(O)cc3)[C@H]2O)[C@@H](OC(=O)/C=C/c2ccc(O)cc2)[C@@H]1O | 5.77 |  |  |
| COc1cc(/C=C/C(=O)OC[C@H]2O[C@H](O[C@]3(CO)O[C@H](COC(=O)/C=C/c4ccc(O)cc4)[C@@H](O)[C@@H]3OC(=O)/C=C/c3ccc(O)cc3)[C@H](O)[C@@H](OC(=O)/C=C/c3ccc(O)cc3)[C@@H]2O)ccc1O | 5.51 |  |  |
| COc1cc(/C=C/C(=O)OC[C@H]2O[C@]3(COC(C)(C)O[C@H]4[C@H](O[C@@H]5COC(C)(C)O[C@H]5[C@@H]4OC(=O)/C=C/c4ccc(OC(C)=O)c(OC)c4)O3)[C@@H](OC(=O)/C=C/c3ccc(OC(C)=O)c(OC)c3)[C@@H]2OC(=O)/C=C/c2ccc(OC(C)=O)c(OC)c2)ccc1OC(C)=O | 5.49 |  |  |
| COc1cc(/C=C/C(=O)OC[C@H]2O[C@H](O[C@]3(CO)O[C@H](COC(=O)/C=C/c4ccc(O)cc4)[C@@H](O)[C@@H]3OC(=O)/C=C/c3ccc(O)cc3)[C@H](O)[C@@H](O)[C@@H]2O)ccc1O [LAPATHOSIDE C] | 4.90 |  |  |
| COc1cc(/C=C/C(=O)OC[C@H]2O[C@@](CO)(O[C@H]3O[C@H](CO)[C@@H](O)[C@H](O)[C@H]3O)[C@@H](OC(=O)/C=C/c3ccc(O)c(OC)c3)[C@@H]2OC(=O)/C=C/c2ccc(O)c(OC)c2)ccc1O | 4.65 | tde | 4.26 |
| CC[C@@]1(O)C(=O)OCc2c1cc1n(c2=O)Cc2cc3ccccc3nc2-1 [CAMPTOTHECIN] | 6.40 |  |  |
| COc1cc(/C=C/C(=O)OC[C@H]2O[C@H](O[C@]3(CO)O[C@H](COC(=O)/C=C/c4ccc(OC(C)=O)cc4)[C@@H](O)[C@@H]3OC(=O)/C=C/c3ccc(OC(C)=O)cc3)[C@H](O)[C@@H](OC(=O)/C=C/c3ccc(OC(C)=O)c(OC)c3)[C@@H]2O)ccc1OC(C)=O | 5.50 |  |  |
| COc1cc(/C=C/C(=O)OC[C@H]2O[C@@](CO)(O[C@H]3O[C@H](CO)[C@@H](O)[C@H](O)[C@H]3O)[C@@H](OC(=O)/C=C/c3ccc(OC(C)=O)c(OC)c3)[C@@H]2OC(=O)/C=C/c2ccc(OC(C)=O)c(OC)c2)ccc1OC(C)=O | 5.77 |  |  |
| COc1cc(/C=C/C(=O)OC[C@H]2O[C@@](CO)(O[C@H]3O[C@H](CO)[C@@H](O)[C@H](OC(=O)/C=C/c4ccc(O)c(OC)c4)[C@H]3O)[C@@H](OC(=O)/C=C/c3ccc(O)c(OC)c3)[C@@H]2OC(=O)/C=C/c2ccc(O)c(OC)c2)ccc1O | 5.79 | tde | 5.10 |
| COc1cc(/C=C/C(=O)OC[C@H]2O[C@@](CO)(O[C@H]3O[C@H](CO)[C@@H](O)[C@H](O)[C@H]3O)[C@@H](OC(=O)/C=C/c3ccc(O)c(OC)c3)[C@@H]2O)ccc1O [HELONIOSIDE A] | < 4.00 |  |  |
| COc1cc(/C=C/C(=O)OC[C@H]2O[C@]3(COC(C)(C)O[C@H]4[C@H](O[C@@H]5COC(C)(C)O[C@H]5[C@@H]4O)O3)[C@@H](OC(=O)/C=C/c3ccc(O)c(OC)c3)[C@@H]2OC(=O)/C=C/c2ccc(O)c(OC)c2)ccc1O | 5.38 |  |  |
| COc1cc(/C=C/C(=O)OC[C@H]2O[C@]3(COC(C)(C)O[C@H]4[C@H](O[C@@H]5COC(C)(C)O[C@H]5[C@@H]4O)O3)[C@@H](OC(=O)/C=C/c3ccc(OC(C)=O)c(OC)c3)[C@@H]2O)ccc1OC(C)=O | 5.22 | tde | 4.55 |
| COc1cc(/C=C/C(=O)OC[C@H]2O[C@@](CO)(O[C@H]3O[C@H](CO)[C@@H](O)[C@H](O)[C@H]3O)[C@@H](OC(=O)/C=C/c3ccc(OC(C)=O)c(OC)c3)[C@@H]2O)ccc1OC(C)=O | < 4.00 |  |  |
| CC(=O)Oc1ccc(/C=C/C(=O)OC[C@H]2O[C@@](CO)(O[C@H]3O[C@H](COC(=O)/C=C/c4ccc(OC(C)=O)cc4)[C@@H](O)[C@H](OC(=O)/C=C/c4ccc(OC(C)=O)cc4)[C@H]3O)[C@@H](OC(=O)/C=C/c3ccc(OC(C)=O)cc3)[C@@H]2O)cc1 | 5.73 |  |  |
| COc1cc(/C=C/C(=O)OC[C@H]2O[C@]3(COC(C)(C)O[C@H]4[C@H](O[C@@H]5COC(C)(C)O[C@H]5[C@@H]4O)O3)[C@@H](O)[C@@H]2O)ccc1OC(C)=O | < 4.00 |  |  |
